The text below walks through data of BindingDB's records for doi:10.7270/Q2G73C2Z (University of Pittsburgh, 2007).

What is called IC50 is the concentration that gives 50% inhibition. Read a high IC50 as weaker potency in that assay.

The target of the assay is T1, Dual specificity protein phosphatase 6 (Rattus norvegicus, UniProt Q64346).
T1 sequence (Q64346 whole entry): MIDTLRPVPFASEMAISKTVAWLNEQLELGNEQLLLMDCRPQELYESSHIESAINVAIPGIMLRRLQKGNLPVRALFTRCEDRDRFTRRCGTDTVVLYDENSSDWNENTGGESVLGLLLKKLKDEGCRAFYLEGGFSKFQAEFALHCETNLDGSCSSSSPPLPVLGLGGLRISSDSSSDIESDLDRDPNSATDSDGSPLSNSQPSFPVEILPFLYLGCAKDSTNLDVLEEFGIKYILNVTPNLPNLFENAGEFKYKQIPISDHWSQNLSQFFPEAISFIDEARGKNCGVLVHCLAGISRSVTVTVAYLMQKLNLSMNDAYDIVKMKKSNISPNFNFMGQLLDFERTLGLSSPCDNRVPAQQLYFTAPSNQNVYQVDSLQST
Put plainly: MKP-3 phosphatase inhibitors, repeat potency, dose response, biochemical, rat DUSP6, reproducibility testing, probe assessment (AID 566).
Compound `Cc1ccc(C)n1-c1cccc(C(=O)O)c1` returned an IC50 above 50 µM.
Regarding `O=C(Nc1ccc2nc(-c3ccco3)c(-c3ccco3)nc2c1)N1CCCCCC1`, the IC50 is above 50 µM.
The figure for `CCCCCC#CCC#CCC#CCC#CCCCC(=O)O` is above 50 µM; for `Cn1ncnc2c(=O)n(C)c(=O)nc1-2` it is 0.535 µM; for `[O-]/[N+](=C\c1ccncc1)c1ccccc1` it is above 50 µM.
For `O=C1C=Cc2ccccc2C1=O` [1,2-dihydronaphthalene-1,2-dione], the IC50 is above 50 µM.
Turning to `Cc1nc2cc(-c3cccc(F)c3)nn2c(C)c1CCC(=O)N1CCC2(CC1)OCCO2` [1-(1,4-dioxa-8-azaspiro[4.5]decan-8-yl)-3-[2-(3-fluorophenyl)-5,7-dimethyl-6-pyrazolo[1,5-a]pyrimidinyl]-1-propanone], the IC50 was above 50 µM.
In turn, `CCn1nc(-c2ccccc2)nc2c(=O)n(C)c(=O)nc1-2` [1-Ethyl-6-methyl-3-phenyl-1H-pyrimido[5,4-e][1,2,4]triazine-5,7-dione] had an IC50 of 0.568 µM.
For `Cc1cc(C)n2c(SCC(=O)N3CCN(S(=O)(=O)c4ccc(Cl)cc4)CC3)nnc2n1` [1-[4-(4-chlorophenyl)sulfonyl-1-piperazinyl]-2-[(5,7-dimethyl-[1,2,4]triazolo[4,3-a]pyrimidin-3-yl)thio]ethanone], the IC50 was above 50 µM.
Compound `[O-]/[N+](=C\c1ccc(OC(F)F)cc1)c1ccccc1` [1-[4-(difluoromethoxy)phenyl]-N-phenylmethanimine oxide] returned a half-inhibitory concentration (IC50) above 50 µM.
For the compound `CCCCn1c(SCC(=O)c2ccc(OC)cc2OC)nc2cc(S(N)(=O)=O)ccc21` [1-butyl-2-[2-(2,4-dimethoxyphenyl)-2-oxidanylidene-ethyl]sulfanyl-benzimidazole-5-sulfonamide], the IC50 was above 50 µM.
Take `CCn1nc(-c2cccs2)nc2c(=O)n(C)c(=O)nc1-2` [1-ethyl-6-methyl-3-thiophen-2-yl-pyrimido[5,4-e][1,2,4]triazine-5,7-dione]: the IC50 was 0.445 µM.
In turn, `O=C(Nc1ccccc1)c1ccc2nc(-c3ccco3)c(-c3ccco3)nc2c1` [2,3-di-2-furyl-N-phenyl-6-quinoxalinecarboxamide] gave an IC50 above 50 µM.
With `CC(C)Cn1c(N)c(C(=O)COC(=O)c2cc(-c3ccco3)nc3ccccc23)c(=O)n(C)c1=O` [2-(2-furanyl)-4-quinolinecarboxylic acid [2-[4-amino-1-methyl-3-(2-methylpropyl)-2,6-dioxo-5-pyrimidinyl]-2-oxoethyl] ester], the IC50 was above 50 µM.
`CCOc1ccc(-c2cc3nc(C4CCN(C(=O)OC(C)(C)C)CC4)c(C(=O)O)cn3n2)cc1` [2-(4-ethoxyphenyl)-5-[1-[(2-methylpropan-2-yl)oxy-oxomethyl]-4-piperidinyl]-6-pyrazolo[1,5-a]pyrimidinecarboxylic acid]: the IC50 is above 50 µM.
`COc1ccc(-c2cc3nc(C4CCN(C(=O)OC(C)(C)C)CC4)c(C(=O)O)cn3n2)cc1` [2-(4-methoxyphenyl)-5-[1-[(2-methylpropan-2-yl)oxy-oxomethyl]-4-piperidinyl]-6-pyrazolo[1,5-a]pyrimidinecarboxylic acid] displayed an IC50 above 50 µM.
The figure for `Cc1cccc(NC(=O)c2cc(NC(=O)C3CCCCC3C(=O)O)ccc2N2CCCCC2)c1` (stereo unspecified) [2-({[3-{[(3-methylphenyl)amino]carbonyl}-4-(1-piperidinyl)phenyl]amino}carbonyl)cyclohexanecarboxylic acid] is above 50 µM; for `Cc1ccc(/C=C/C2=Cc3c(sc(NC(=O)CSc4nnc(N)[nH]4)c3C#N)C(C)(C)C2)o1` [2-[(5-azanyl-1H-1,2,4-triazol-3-yl)sulfanyl]-N-[3-cyano-7,7-dimethyl-5-[(E)-2-(5-methylfuran-2-yl)ethenyl]-6H-1-benzothiophen-2-yl]ethanamide] it is above 50 µM; for `CCCCNC(=O)c1c(N)n(CCCOC)c2nc3ccccc3nc12` [2-amino-N-butyl-1-(3-methoxypropyl)-3-pyrrolo[3,2-b]quinoxalinecarboxamide] it is above 50 µM.
Regarding `N#Cc1c(N)sc(=S)c2c1CCN(Cc1ccccc1)C2` [3-Amino-7-benzyl-1-thioxo-5,6,7,8-tetrahydro-1H-thiopyrano[3,4-c]pyridine-4-carbonitrile], the IC50 turned out to be 2.08 µM.
In the case of `O=C1C=C(NCc2ccc(Cl)c(Cl)c2)CC1` [3-[(3,4-dichlorobenzyl)amino]cyclopent-2-en-1-one], the half-inhibitory concentration (IC50) was above 50 µM.
In the case of `CCCSc1nnc(NC(=O)c2sc3nc(-c4cccs4)ccc3c2N)s1` [3-amino-N-(5-propylsulfanyl-1,3,4-thiadiazol-2-yl)-6-thiophen-2-ylthieno[2,3-b]pyridine-2-carboxamide] it was above 50 µM.
The compound `O=C1Nc2ccccc2SC(c2ccccc2)C1O` (stereo unspecified) [3-hydroxy-2-phenyl-2,3-dihydro-1,5-benzothiazepin-4(5H)-one] registered an IC50 above 50 µM.
In the case of `CC(C)(C)N1C(=O)Cc2c1nc(N)c1c(N)nc(N3CCCCC3CO)c(C#N)c21` (stereo unspecified) [5,6-bis(azanyl)-3-tert-butyl-8-[2-(hydroxymethyl)piperidin-1-yl]-2-oxidanylidene-1H-pyrrolo[2,3-c][2,7]naphthyridine-9-carbonitrile] it was above 50 µM; in that of `COc1cc(/C=C(/C#N)c2ccc(F)cc2)ccc1OCc1ccc(C(=O)O)o1` [5-({4-[2-cyano-2-(4-fluorophenyl)vinyl]-2-methoxyphenoxy}methyl)-2-furoic acid], above 50 µM.
Regarding `COc1ccc(Br)cc1C=c1sc2nc(-c3ccco3)nn2c1=O` [5-[(5-bromanyl-2-methoxy-phenyl)methylidene]-2-(furan-2-yl)-[1,3]thiazolo[3,2-b][1,2,4]triazol-6-one], the IC50 is above 50 µM.
Regarding `CCOc1cc(/C=C(/C#N)c2ccc(F)cc2)ccc1OCc1ccc(C(=O)O)o1` [5-[[4-[(E)-2-cyano-2-(4-fluorophenyl)ethenyl]-2-ethoxyphenoxy]methyl]furan-2-carboxylic acid], the IC50 is above 50 µM.
As for `N#Cc1c(NC(=O)c2ccc(Br)o2)n(-c2ccccc2)c2nc3ccccc3nc12` [5-bromanyl-N-(3-cyano-1-phenyl-pyrrolo[3,2-b]quinoxalin-2-yl)furan-2-carboxamide], the IC50 came to 15.5 µM.
Take `Cc1cccc(N2CCN(C(=O)Cc3c(C(=O)O)[nH]c4ccc(Cl)cc34)CC2)c1C` [5-chloranyl-3-[2-[4-(2,3-dimethylphenyl)piperazin-1-yl]-2-oxidanylidene-ethyl]-1H-indole-2-carboxylic acid]: the IC50 is above 50 µM.
Compound `CCCCCNC(=O)c1ccc2c(=O)[nH]c3c(C(=O)NCC4CCCO4)sc(=S)n3c2c1` (stereo unspecified) [5-oxo-N3-(2-oxolanylmethyl)-N8-pentyl-1-sulfanylidene-4H-thiazolo[3,4-a]quinazoline-3,8-dicarboxamide] returned an IC50 above 50 µM.
The figure for `Cc1nc2c(C(=O)NCCC3=CCCCC3)c[nH]n2c(=O)c1Cl` [6-chloro-N-(2-cyclohex-1-en-1-ylethyl)-7-hydroxy-5-methylpyrazolo[1,5-a]pyrimidine-3-carboxamide] is above 50 µM; for `O=C(c1cccs1)c1no[n+]([O-])c1C(=O)c1cccs1` [(5-oxidanidyl-4-thiophen-2-ylcarbonyl-1,2,5-oxadiazol-5-ium-3-yl)-thiophen-2-yl-methanone] it is above 50 µM; for `Nc1c(N2CCCC2)cc(Cl)c2nonc12` [(7-chloro-5-pyrrolidino-benzofurazan-4-yl)amine] it is above 50 µM.
With `[O-]/[N+](=C/c1ccc(F)cc1)c1ccccc1` [(E)-(4-fluorobenzylidene)(phenyl)azane oxide], the IC50 is above 50 µM.
For the compound `CC1=C(/C=C/C(C)=C/C=C/C(C)=C/C(=O)O)C(C)(C)CCC1` [ALL-TRANS-RETINOIC ACID], the IC50 is above 50 µM.
The compound `CC(=O)[C@@H]1[C@@H]2C(=O)N(c3ccc(F)c(Cl)c3)C(=O)[C@@H]2C2c3ccccc3C=CN21` (stereo partly specified) [MLS000040594] returned an IC50 of 47.1 µM.
Regarding `COCCCn1c(N)c(C(=O)NCCC(C)C)c2nc3ccccc3nc21` [MLS000041744], the IC50 was above 50 µM.
In the case of `CCn1c(SCC(=O)Nc2ccc3c(c2)c2ccccc2n3CC)nnc1-c1ccco1` [MLS000050867], the IC50 is above 50 µM.
The compound `O=C1C(=C2C(=O)c3ccccc3C2=O)Nc2ccccc21` [MLS000071738] showed an IC50 above 50 µM.
As to `COc1ccc(-n2c(NC(=O)c3ccco3)c(C#N)c3nc4ccccc4nc32)cc1` [MLS000079925], the IC50 was 14.2 µM.
On to `COc1ccc(Cn2c(C)nc3c(c2=O)c2nc4ccccc4nc2n3Cc2ccco2)cc1` [MLS000079944], for which the IC50 was above 50 µM.
The figure for `Cc1ccc(-c2csc(NC(=O)c3ccno3)n2)cc1` [MLS000081820] is above 50 µM; for `CC(C)Sc1nc2sc3c(c2c2nnc(SCC(=O)NCc4ccco4)n12)CCCC3` [MLS000082957] it is above 50 µM.
With `Nc1nc2c(s1)CCc1c-2cnn1-c1ccccc1` [MLS000085948], the IC50 was above 50 µM.
In the case of `Cc1cc(NC(=O)c2ccc(S(=O)(=O)N3CCCC3)cc2)nc2c1c(=O)oc1ccccc12` [MLS000091355] it was above 50 µM; in that of `FC(F)(F)c1ccc(N2CCOCC2)c(Nc2nc3ccccc3n3cnnc23)c1` [MLS000093276], above 50 µM.
Regarding `COC(=O)c1ccccc1NC(=O)CN1C(=O)C2CCCN2c2ncc(Cl)cc21` (stereo unspecified) [MLS000094302], the IC50 is above 50 µM.
Consider `CCc1ccc(NC(=O)CSc2nc3ccccc3c(=O)n2CCN2CCOCC2)cc1` [MLS000095236], for which the IC50 is above 50 µM.
For the compound `Cc1c(N=c2c(=O)c3ccccc3c2=O)c(=O)n(-c2ccccc2)n1C` [MLS000105950], the midpoint of inhibition, the IC50, lay at 8.19 µM.
`CCOc1ccc2noc3c2c1C(=O)c1ccccc1-3` [MLS000106837]: the IC50 was above 50 µM.
Compound `COc1ccc2noc3c2c1C(=O)c1ccccc1-3` [MLS000106874] displayed an IC50 of 22.6 µM.
